From PubChem BioAssay (NCI)
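The compound was tested at five concentrations on cells cultured in 96-well plates, with a 48-hour exposure period. The concentration for 50% growth inhibition is given as GI50. TGI: total growth inhibition.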

What was measured:
Test in all cases: growth of human tumour cells (NCI), 48 h
[1] = tested on: U251 CNS
[2] = tested on: A498 renal
[3] = tested on: RXF 393 renal
[4] = tested on: NCI-H23 lung
[5] = tested on: OVCAR-8 ovarian
[6] = tested on: NCI-H460 lung
[7] = tested on: HL-60(TB) leukemia
[8] = tested on: K-562 leukemia

Structure (SMILES) | GI50 [1] [µM] | TGI [1] [µM] | GI50 [2] [µM] | TGI [2] [µM] | GI50 [3] [µM] | TGI [3] [µM] | GI50 [4] [µM] | TGI [4] [µM] | GI50 [5] [µM] | TGI [5] [µM] | GI50 [6] [µM] | TGI [6] [µM] | GI50 [7] [µM] | TGI [7] [µM] | GI50 [8] [µM] | TGI [8] [µM]
COC(=O)Nc1nc2ccc(C(=O)c3ccc(F)cc3)cc2[nH]1 | 0.287 | 6.68 | 0.403 | 4.47 | 0.763 | > 100 | 1.12 | 56.2 | 0.639 | > 31.6 | 0.336 | > 100 | 0.107 | 0.608 |  | 
CCN(CC)CC(O)c1cc(-c2ccc(Cl)cc2)nc2c(C)c(Cl)ccc12 (configuration not stated) | 1.77 | 3.33 |  |  | 1.71 | 3.14 | 1.78 | 3.3 |  |  |  |  | 2.1 | 4.57 | 1.66 | 4.26
C=C(Br)COc1ccc2c(C)cc(=O)oc2c1 |  | > 100 |  | > 100 |  | 81 |  | > 100 |  | > 100 |  | > 100 |  | > 100 |  | > 100
C[C@]12CC[C@H]3[C@@H](CC[C@]4(O)C[C@@H](O[C@@H]5O[C@H](CO)[C@@H](O[C@@H]6OC[C@@H](O)[C@H](O)[C@H]6O)[C@H](O)[C@H]5O)CC[C@]34C=O)[C@@]1(O)CC[C@@H]2C1=CC(=O)OC1 | 1.68 | 5.67 | 1.23 | 4.5 | 1.25 | 3.11 | 0.839 | 2.71 | 1.62 | 5.56 | 0.379 | 1.31 | 1.12 | 3.08 | 1.57 | 10.2
CCCCCCCCCCCCCCCCCC[S+](C)CC (configuration not stated) |  |  | 1.71 | 4.36 |  |  | 1.38 | 3.2 |  |  |  |  | 1.17 | 3.8 |  | 
COc1ccc(/C=C/C(=O)/C=C(O)/C=C/c2ccc(OC)c(OC)c2)cc1OC | 2.99 | > 100 |  |  |  |  | 3.94 | 21.8 | 35.5 | 95.9 | 4.6 | > 100 |  |  | 1.16 | > 100
CC[C@@]1(O)C(=O)OCc2c1cc1n(c2=O)Cc2c-1nc1cc(F)c(C)c3c1c2[C@@H](NC(=O)CO)CC3 | < 0.01 | 1.76 | < 0.011 | 0.0516 | < 0.01 | 0.0731 | < 0.01 | 0.0729 | 0.0132 | > 100 | < 0.01 | 1.27 | < 0.01 | 0.781 | 0.0193 | > 100
COc1cc(C)[nH]c(=O)c1CNC(=O)c1c(C)n([C@H](C)C2CCN(CC(F)(F)F)CC2)c2ccccc12 | 90.6 | > 100 | 28.2 | > 100 | 21.7 | 99.5 | > 100 | > 100 | > 100 | > 100 | 42.9 | > 100 | 28.5 | 82.9 | 48.5 | > 100
CC(C)C1=CC2=C(C(=O)C1=O)C13CCCC(C)(C)C1CC2OC3=O (configuration not stated) |  | 49.7 |  | 52.2 |  |  |  | 61.7 |  | 35.4 |  | 71.9 |  | 36.3 |  | 19.7
O=C(/C=C/C=C/c1ccc2c(c1)OCO2)N/N=C\c1ccc(O)cc1O | 1.64 | 23 | 2.07 | 7.15 | 1.74 | 6.88 | 2.11 | 10.6 | 2.67 | 29.9 | 1.58 | 10.5 | 3.58 | 24.1 | 2.83 | > 100
CCn1ncc(N=O)c1N |  |  |  |  |  |  |  | > 100 |  | > 100 |  | > 100 |  |  |  | > 100
COc1ccc(/C=C\c2cc(OC)c(OC)c(OC)c2)c(NS(=O)(=O)c2ccc(F)cc2)c1O | 0.142 | > 100 | 0.0235 | 0.0966 | 0.0542 | > 100 | 0.128 | > 62.4 | 0.128 | > 100 | 0.0419 | 26.1 | 0.032 | 23.8 | 0.0353 | > 76
Nc1c(C(=O)Nc2cccc(C(F)(F)F)c2)sc2nc3c(cc12)CCCCCC3 | 2.58 | 10.5 | 1.39 | 5.51 | 1.63 | 3.21 | 2.39 | 10.6 | 2.24 | 6.82 | 2.32 | 7.52 | 11.3 | > 100 | 3.65 | 20
CO/C(=C1/NC(=O)C(Cc2ccc(O)c(Br)c2)N(C)C(=O)C(C)NC(=O)CCC/C=C(\C)CCC(C)OC1=O)c1ccccc1 (configuration not stated) | 0.0199 | 0.0909 | 0.0174 | 0.0357 | 0.0347 | 16.2 | 0.106 | 22.4 | 0.0437 | 6.41 |  | 3.49 | 0.033 | 0.999 | 0.335 | > 100
Nc1nc(N)c2c(n1)CCC(S(=O)(=O)c1ccc3ccccc3c1)C2 (configuration not stated) |  | > 100 |  | 40 | 2.53 | 57.8 |  | > 100 |  | > 100 |  | > 67 |  | 23.6 | 0.315 | 63.6
COc1cc(N2CCC(N)CC2)ccc1Nc1ncc(Cl)c(-c2c[nH]c3ccccc23)n1 | 0.407 | 1.79 | 0.123 | 0.386 | 0.338 | 1.41 | 0.925 | 3.06 | 1.13 | 2.44 | 0.235 | 1.66 | 0.0412 | 2.75 | 1.58 | 5.03
COCCn1c2c([n+](Cc3cnccn3)c1C)C(=O)c1ccccc1C2=O | < 0.01 | < 0.01 | 0.0987 | 0.573 | 0.0156 | 0.128 | < 0.01 | < 0.0113 | < 0.01 | < 0.01 | 0.0208 | 0.112 | < 0.01 | < 0.01 | < 0.01 | 5.6
